According to patent publication US20100209404A1, “ENHANCED METHOD FOR PRODUCING STEM-LIKE CELLS FROM SOMATIC CELLS” (UNIVERSITY OF DAYTON, priority 2009, published 2010):

Key:
skin fibroblast cells = settings: thapsigargin 1 μg/ml in SR-containing medium; cited from earlier work
[1] = test system: fibroblast growth factor receptor 3 (FGFR3); settings: thapsigargin 1 μg/ml in SR-containing medium; cited from earlier work
[2] = test system: Mouse embryonic skin fibroblast (MEF) cells; test: Conversion (reprogramming) of MEF cells into stem-like cells in defined medium; type: cell-based
Method: MEF medium: DMEM (Invitrogen 11965-092) supplemented with 10% FBS (16000-044), 100 U/mL penicillin streptomycin (15140-122). Defined medium (Modified/Supplemented SR medium): 400 ml DMEM/F12 (Invitrogen 11330-032), 5 ml non-Essential Amino Acids (Invitrogen 11140-050), 2.5 ml L-Glutamine (Invitrogen 25030-018), 0.1 mM β-mercaptoethanol (Sigma 7522, add 3.5 μl) and 100 ml Knockout Serum Replacer (Invitrogen 10828-028). 4 ng/mL bFGF (13256-029), 1000/ml unit of ESGRO™ (Lif) (Chemicon Cat #ESG1107). For each experiment, the necessary amount of defined medium was aliquoted, and then freshly prepared bFGF and Lif were added to the medium each time just in advance of use. (Lif was used as a component of such medium for mouse cell culture only.) FGF stock was made by adding 1 ml of DMEM/F12 to a vial of 10 μg of FGF, with the 10 μg of FGF dissolved in the DMEM/F12 and then aliquoted into five vials. Stock vials were then stored at −20° C. For each 30 ml of defined medium, 12 μl of the stock bFGF was added. Arachidonic acid (AA) stock was made by dissolving 10 mg of AA (from porcine liver A3555-10M Sigma) in 1 ml of DMSO. Dissolved AA was then aliquoted into five vials, and then store at −20° C. ([…]). Before use in defined medium, the 10 mg/ml AA was diluted with 1×PBS at a 1:5 ratio. […]

skin fibroblasts = settings: SR reconstituted while eliminating individual supplements; cited from earlier work
ES-like cells = settings: bFGF (4 ng/ml) and Lif added together to SR-containing medium; cited from earlier work

C/C=C(/C)C(=O)O[C@H]1C(C)=C2[C@H]([C@@H]1OC(=O)CCCCCCC)[C@@](C)(OC(C)=O)C[C@H](OC(=O)CCC)[C@@]1(O)[C@H]2OC(=O)[C@@]1(C)O [Thapsigargin]
conversion of skin fibroblast cells into stem cell-like cells (skin fibroblast cells): prevented
up-regulated expression of FGFR3 [1]: prevented

CCCCC/C=C\C/C=C\C/C=C\C/C=C\CCCC(=O)O [arachidonic acid, all-cis 5,8,11,14-eicosatetraenoic acid]
conversion efficiency of somatic cells ([2]; arachidonic acid 2 mg/L added to defined medium, in isolation or together with pluronic F68): increase the conversion efficiency
role of SR component in reprogramming somatic cells (e.g., fibroblasts) into stem-like cells (skin fibroblasts): critical components

bFGF: basic fibroblast growth factor
efficient reprogramming of MEF cells to stem-like cells ([2]; freshly prepared, bFGF 4 ng/mL and Lif 1000/ml unit added to defined medium immediately prior to every conversion or passage): important to ensuring efficient reprogramming
differentiation of the ES-like cells (ES-like cells): preventing differentiation
division of the ES-like cells (ES-like cells): promote division

lipid-rich BSA: lipid-rich BSA (AlbuMax I, Invitrogen), component of serum replacement
role of SR component in reprogramming somatic cells (e.g., fibroblasts) into stem-like cells (skin fibroblasts): critical components
